Laboratory results published in paper PMC8097335, “A High‐Affinity Calmodulin‐Binding Site in the CyaA Toxin Translocation Domain is Essential for Invasion of Eukaryotic Cells” (Advanced Science, 2021).

Assays:
[1] = Synchrotron radiation circular dichroism, alpha-helical content (Bestsel); type: physicochemical; conditions: 25 °C, far-UV SRCD; for alpha-helical content, TFE 20%: 20% TFE; for alpha-helical content, POPC:POPG 8:2: SUVs POPC:POPG 8:2 at 2 mM lipid; for alpha-helical content, Solution: buffer A
Description: Synchrotron Radiation Circular Dichroism
Synchrotron radiation circular dichroism (SRCD) was performed on the DISCO beamline of the synchrotron SOLEIL (Saint -Aubin, France) . Spectra were recorded at 25°C with an integration time of 1.2 s and a bandwidth of 1 nm with a resolution of 1 nm. A far-UV spectrum represents the average of four individual scans. QS cells (Hellma, France) with a pathlength of 20, 50, 100 or 200 μm (depending on final protein concentrations) were used to record spectra in the fa r -UV range (from 190 to 250 nm). CD spectra of peptides and proteins were measured in buffers A and B, 20% of trifluoroethanol (TFE), in the presence of SUVs (POPC :PO PG 8: 2) or Ca M. Secondary structure content was estimated using Bestsel software […]
Table S8: Estimation of the α -helical content of P454-derived peptides. The secondary structure content is estimated using the on-line Bestsel software 17 available at http://bestsel.elte.hu/index.php. […]
peptide in buffer A, in 20% TFE and in the presence of POPC POPG (molar ratio 8:2) at 2 mM lipid concentration. The far -UV CD spectra of several P454-derived peptides are shown […]

[2] = Peptide titrations by SUVs followed by tryptophan fluorescence (solution-to-membrane partition); type: physicochemical; conditions: for Partition coefficient KX: POPC:POPG 8:2 SUVs, buffer A pH 7.4, 25 °C, tryptophan fluorescence ratio 330/370 nm; for Partition coefficient KX / ∆GKx for POPC POPG 8:2: S.D. within ± 10%; for Kd: converted from KX: [W]/KX = Kd, [W] = 55.5 M, read-out: Kd for POPC:POPG 8:2; for ∆GKx for POPC POPG 8:2: ∆GKx = -RT Ln Kx
Description: Lipid vesicles preparation
Small unilamellar vesicles (SUVs) and large unilamellar vesicles (LUVs) were prepared with POPC and POPG at a molar ratio of 8:2, at a lipid concentration of 10 mM in buffer A, as previously described 1. Briefly, SUVs and LUVs were prepared by reverse phase evaporation and filtered through polycarbonate filters of 1 μm and 0.2 μm of pore size diameter to obtain L UV. SUVs were further sonicated. The hydrodynamic diameters and mean net charge of the vesicles were measured by dynamic light scattering (DLS) and electrophoretic mobility, respectively, using a ZetaSizer NanoZS (Malvern Pananalytical , Orsay, France) 11.
Peptide titrations bySUV s and CaM followed by tryptophan fluorescence
Titrations were carried out with a FP-8200 Jasco spectrofluorimeter, equipped with a Pelt ie r - thermostated ETC-272T at 25°C. A bandwidth of 5 nm was used for both excitation and […]
(Hellma, France) with constant stirring. Fluorescence emission was recorded between 300 and […]
400 nm at a scan rate of 100 nm/min, with an excitation wavelength of 280 nm. Fluorescence emission spectra were corrected for SUV or CaM baselines . Fluorescence intensity ratio at 330 nm over 370 nm was use d to measure the partition coefficient (K X) of peptides between the solution andmembrane s 1, 12 and the affinity (K d) of peptides for CaM 13.
Determination of partition coefficient KX and dissociation constant Kd from […]
The partition coefficient KX is defined as the ratio of protein in the lipid (PL) and in buffer […]
(PW) pha se s 12, 14, expressed by: KKXX = [LL ]? , giving[PPWW ] [PPWW ]= [WW], where [W] the […]
concentration of water (55.5 M) and [L] the lipid concentration.
The fraction of peptide partitioned into the membrane, fPL, is equal to:
ffPPLL = [PPLL ][PPTT ]= [PPLL ][PPLL ]+[PPWW ]= 11+([PPWW ])= 11+( [WW]), where PT is the total concentration of peptides [PP TT ]= [PP LL ]+ [PP WW ]. […]
The equations a re fitted to the experimental data using the KaleidaGraph software, providing the KX and K d value s. The partition coefficient is related to the apparent dissociation constant:
KKXX × KKdd = [WW ] and to the free energy of partition ΔG Kx = -RTln(K X), where ΔG is the free energy in kcal/mol, R the gas constant (R = 1.98 x 10-3 kcal/mol/K) and T the temperature i n Kelvin. The free energy of peptide CaM interaction, ∆G Kd, is given by ΔG Kd = RTln(K d).
Sedimentation velocity-Analytical ultracentrifugation (SV -AUC) […]
ratio 1:1 (at 70 µM each). Samples were incubated 2h at 20°C in the ultracentrifuge and, then span at 42,000 rpm in an An-50 Ti rotor. […]

[3] = Membrane permeabilization of ANTS/DPX-loaded LUVs; conditions: for CP1/2, peptide concentration required to induce recovery of 50% of ANTS fluorescence intensity upon LUVs permeabilization: ANTS:DPX LUVs POPC:POPG 8:2, 0.45 mM lipid, buffer A pH 7.4, 25 °C, ex 390/em 515 nm, S.D. ± 5%
Description: To monitor membrane permeabilization induced by peptides, ANTS (fluorophore probe) and
DPX (quencher) were encapsulated into large unilamellar vesicles (LUVs). The LUVs were
prepared at a concentration of 10 mM lipid at a POPC:PO PG molar ratio of 8:2 containing 20
mM ANTS and 60 mM DPX. The multilamellar vesicle suspension was extrudedthrough 0.4-
and 0.2 μm polycarbonate filters to produce LUVs. The unencapsulated ANT S a nd DPX we re
removed by gel filtration with a 5 mL Sephadex G -25 column (GE Healthcare Life Sciences ).
For permeabilization assays, LUVs were incubated in buffer A at 0.45 mM lipid
concentration at 25°C in a 101-QS cuvette (Hellma, France) and under constant stirring.
excitation wavelength was set at 390 nm and the emission of ANTS was continuously
measured at 515 nm. The maximum intensity of permeabilization, corresponding to the
maximum recovery of ANTS fluorescence, was measured after addition of 0.1% of Triton
X100. The concentration of membrane-bound peptide s required to induce the recovery of half
intensity of the ANTS fluorescence (C P1/2) was extracted from the permeabilization intensity
a s a function of peptide concentration 1.
LUVs were incubated in buffer B at a lipid concentration of 0.45 mM.
After a few seconds of permeabilization,
holo-Ca M wa s added t o t he solution at a peptide:Ca M molar ratio of 1:3. EDT A wa s
subsequently added in excess to chelate calcium and convert holo -CaM to apo -C a M .

[4] = target: T1, calmodulin (CaM) (Homo sapiens, UniProt P0DP23); experiment: Peptide titrations by CaM followed by tryptophan fluorescence, and ITC (Kd for CaM); type: binding; conditions: for Kd: holo-CaM, from fluorescent titrations and ITC, 25 °C, average of at least three independent replicates; for Kd / ∆GKd for CaM: S.D. within ± 10%; for ∆GKd for CaM: ΔGKd = RTln(Kd)
T1 construct: made in house; host or cells: E. coli
Description: peptides by CaM and is expressed as follows: 𝐾𝐾 𝑑𝑑 = [𝑃𝑃 ]∗[𝐶𝐶𝐶𝐶𝐶𝐶 ][𝑃𝑃:𝐶𝐶𝐶𝐶𝐶𝐶] , given 𝐾𝐾𝑑𝑑[𝐶𝐶𝐶𝐶𝐶𝐶]= [𝑃𝑃 ][𝑃𝑃 :𝐶𝐶𝐶𝐶𝐶𝐶]and the fraction of complex, fP:CaM, i s: 𝑓𝑓𝑃𝑃:𝐶𝐶𝐶𝐶𝐶𝐶 = [𝑃𝑃 :𝐶𝐶𝐶𝐶𝐶𝐶 ][𝑃𝑃:𝐶𝐶𝐶𝐶𝐶𝐶]+[𝑃𝑃]= 11+ [𝑃𝑃 ]= 11+ 𝐾𝐾𝑑𝑑.

Row | Compound | alpha-helical content, TFE 20% [1] [%] | alpha-helical content, POPC:POPG 8:2 [1] [%] | alpha-helical content, Solution [1] [%] | Partition coefficient KX [2] | Kd [2] [µM] | ∆GKx for POPC POPG 8:2 [2] [kcal/mol] | CP1/2, peptide concentration required to induce recovery of 50% of ANTS fluorescence intensity upon LUVs permeabilization [3] [µM] | Decrease of affinity for CaM relative to P454 ([4]; from Table S3) [fold] | Kd [4] [µM] | ∆GKd for CaM [4] [kcal/mol] | Vesicle permeabilization (in words) ([3]; ANTS:DPX LUVs POPC:POPG 8:2)
1 | CC[C@H](C)[C@H](NC(=O)[C@H](C)NC(=O)[C@H](Cc1c[nH]cn1)NC(=O)[C@@H](NC(=O)[C@H](CC(C)C)NC(=O)[C@H](CCCNC(=N)N)NC(=O)[C@H](CCC(N)=O)NC(=O)[C@H](C)NC(=O)[C@H](C)NC(=O)[C@H](C)NC(=O)[C@@H](NC(=O)[C@H](C)NC(=O)[C@H](CCC(N)=O)NC(=O)[C@H](C)NC(=O)CNC(=O)[C@H](CCC(N)=O)NC(=O)[C@H](CC(C)C)NC(=O)[C@H](C)NC(=O)[C@H](CCCNC(=N)N)NC(=O)[C@H](CCC(N)=O)NC(=O)CNC(=O)[C@@H](N)Cc1c[nH]c2ccccc12)C(C)C)C(C)C)C(=O)N[C@@H](C)C(=O)N[C@@H](CC(C)C)C(N)=O [P458] | 50 | 23 ± 2 | 10 ± 4 | 190 ×10^3 | 290 | -7.2 | 1.26 |  |  |  | 
2 | Ac-ASAHAGQRAAQGAQAVAAAQRLVHAIALMTQ-NH2 [P454 W458A-L463A] | 56 | 8 ± 2 | 7 ± 1 | 22 ×10^3 | 2550 | -5.9 | 6.59 | 4 | 0.64 | -8.4 | 
3 | Ac-ASAHAGQRALQGAQAVAAAQRLVHAAALMTQ-NH2 [P454 W458A-I479A] | 55 ± 1 | 7 ± 3 | 10 ± 3 | 4.2 ×10^3 | 13200 | -4.9 | > 80 |  | 2.04 | -7.7 | do not permeabilize vesicles
4 | Ac-ASAHWGQAALQGAQAVAAAQALVHAIALMTQ-NH2 [P454 R12A] |  |  |  | 280 ×10^3 | 200 | -7.4 | 0.14 |  |  |  | 
5 | Ac-ASAHWGQKALQGAQAVAAAQKLVHAIALMTQ-NH2 [P454 R12K] | 45 ± 4 | 26 ± 1 | 13 ±2 | 220 ×10^3 | 260 | -7.3 | 0.09 |  | 0.05 | -9.9 | 
6 | Ac-ASAHWGQQALQGAQAVAAAQQLVHAIALMTQ-NH2 [P454 R12Q] | 50 ± 2 | 23 ± 1 | 8 ± 4 | 70 ×10^3 | 790 | -6.6 | 0.23 |  | 2.09 | -7.7 | 
7 | Ac-ASAHWGQQALQGAQAVAAAQRLVHAIALMTQ-NH2 [P454 R1Q] |  |  |  | 190 ×10^3 | 290 | -7.2 | 0.22 |  | 0.1 | -9.5 | 
8 | Ac-ASAHWGQRALQGAQAVAAAQQLVHAIALMTQ-NH2 [P454 R2Q] |  |  |  | 150 ×10^3 | 370 | -7 | 0.11 |  | 0.18 | -9.2 | 
